Measurements from EP1870419A2, “Modulators of beta-amyloid peptide aggregation comprising D-amino acids” (Praecis Pharmaceuticals Incorporated, priority 1999, dated 2000).

Tests used:
Aβ1-40 = molecular target: T1, Aβ1-40 (Homo sapiens, UniProt P05067); experiment: Nucleation assay (turbidity at 405 nm, change in lag time); assay type: biochemical; conditions: for Nucleation assay Δlag 1.25 µM / Nucleation assay Δlag 5 µM / Nucleation assay Δlag […]: Table I; for Nucleation assay data 0.3 µM / Nucleation assay data 1 µM / Nucleation assay data 3 µM: Table II
T1 construct: first Aβ1-40 peptide is dissolved in HFIP
Text: The nucleation assay is employed to determine the ability of test compounds to alter (e.g. inhibit) the early events in formation of β-AP fibers from monomeric β-AP. Characteristic of a nucleated polymerization mechanism, a lag time is observed prior to nucleation, after which the peptide rapidly forms fibers as reflected in a linear rise in turbidity. The time delay before polymerization of β-AP monomer can be quantified as well as the extent of formation of insoluble fiber by light scattering (turbidity). Polymerization reaches equilibrium when the maximum turbidity reaches a plateau. The turbidity of a solution of natural β-AP in the absence or presence of various concentrations of a β-amyloid modulator compound is determined by measuring the apparent absorbance of the solution at 405nm (A405 nm) over time. The threshold of sensitivity for the measurement of turbidity is in the range of 15-20 µM β-AP. […] This assay can be performed using stirring or shaking to accelerate polymerization, thereby increasing the speed of the assay. Moreover the assay can be adapted to a 96-well plate format to screen multiple compounds.
To perform the nucleation assay, first Aβ1-40 peptide is dissolved in HFIP (1,1,1,3,3,3-Hexafluoro-2-propanol; Aldrich 10,522-8) at a concentration of 2 mg peptide/ml and incubated at room temperature for 30 min. HFIP-solubilized peptide is sonicated in a waterbath sonicator for 5 min at highest setting, then evaporated to dryness under a stream of argon. The peptide film is resuspended in anhydrous dimethylsulfoxide (DMSO) at a concentration of 6.9 mg/ml (25x concentration), sonicated for 5 min as before, then filtered through a 0.2 micron nylon syringe filter (VWR cat. No. 28196-050). Test compounds are dissolved in DMSO at a 100x concentration. Four volumes of 25x Aβ1-40 peptide in DMSO are combined with one volume of test compound in DMSO in a glass vial, and mixed to produce a 1:1 molar ratio of Aβ peptide to test compound. For different molar ratios, test compounds are diluted with DMSO prior to addition to Aβ1-40, in order to keep the final DMSO and Aβ1-40 concentrations constant. […] Ten microliters of the mixture is then added to the bottom of a well of a Coming Costar ultra low binding 96-well plate (Corning Costar, Cambridge MA; cat. No. 2500). Ninety microliters of water is added to the well, the plate is shaken on a rotary shaken at a constant speed at room temperature for 30 seconds, an additional 100 µl of 2x PTL buffer (20 mM NaH2PO4, 300 mM NaCl, pH 7.4) is added to the well, the plate is reshaken for 30 seconds and a baseline (t=0) turbidity reading is taken by measuring the apparent absorbance at 405 nm using a Bio-Rad Model 450 Microplate Reader. The plate is then returned to the shaker and shaken continuously for 5 hours. Turbidity readings are taken at 15 minute intervals.
β-amyloid aggregation in the absence of any modulators results in enhanced turbidity of the natural β-AP solution (i.e., an increase in the apparent absorbance at 405 nm over time).

PC12 cells = experiment: Neurotoxicity assay (MTT viability), PC-12 cells; assay type: cell-based, rat; conditions: aged (5 day or 8 day) aggregates, 48 hours, read-out: EC50 for toxicity
Text: (§1) The neurotoxicity of natural β-amyloid peptide aggregates, in either the presence or absence of a β-amyloid modulator, can be tested in a cell-based assay using either a rat or human neuronally-derived cell line (PC-12 cells or NT-2 cells, respectively) and the viability indicator […]-tetrazolium bromide (MTT). (See e.g., Shearman, M.S. et al. (1994) Proc. Natl. Acad. Sci. USA 91:1470-1474; Hansen, M.B. et al. (1989) J Immun. Methods 119:203-210 for a description of similar cell-based viability assays). PC-12 is a rat adrenal pheochromocytoma cell line and is available from the American Type Culture Collection, Rockville, MD (ATCC CRL 1721). MTT (commercially available from Sigma Chemical Co.) is a chromogenic substrate that is converted from yellow to blue in viable cells, which can be detected spectrophotometrically. […]

NT2 cells = experiment: Neurotoxicity assay (MTT viability), NT-2 cells; assay type: cell-based, human; conditions: aged (5 day or 8 day) aggregates, 48 hours, read-out: EC50 for toxicity
Text: as §1

[1] = 1.25 µM test compound, 5 µM Aβ1-40, ratio to control lag time
[2] = 5 µM test compound, 5 µM Aβ1-40, ratio of lag time with compound to lag time of control
[3] = […] test compound, 5 µM Aβ1-40, ratio to control lag time
[4] = 0.3 µM test compound, 5 µM Aβ1-40, ΔLag, ratio to control lag time
[5] = 1 µM test compound, 5 µM Aβ1-40, ΔLag, ratio to control lag time
[6] = 3 µM test compound, 5 µM Aβ1-40, ΔLag, ratio to control lag time
[7] = rows marked *: measured at 0.6 µM of compound
[8] = rows marked *: measured at 1.25 µM of compound
[9] = rows marked *: measured at […] of compound

T1 sequence (P05067 672-711): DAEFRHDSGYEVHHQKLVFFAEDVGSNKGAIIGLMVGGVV

Substance: TFA·N-ethyl-(Gaffvl)-NH2 [PPI-969]
- Nucleation assay Δlag 1.25 µM (Aβ1-40; [1]): 3
- Nucleation assay Δlag 5 µM (Aβ1-40; [2]): >5
- Nucleation assay Δlag […] (Aβ1-40; [3]): >5

Substance: TFA·H-(lvffa)-isopropylamide [PPI-992]
- Nucleation assay Δlag 1.25 µM (Aβ1-40; [1]): 1
- Nucleation assay Δlag 5 µM (Aβ1-40; [2]): 3
- Nucleation assay Δlag […] (Aβ1-40; [3]): 1

Substance: aged Aβ1-40 aggregates: Aβ1-40 peptide solution incubated at 37 °C for eight days to allow fibrils to form
- EC50 (PC12 cells): 1 to 2 µM
- EC50 (NT2 cells): 1 to 2 µM

Substance: 2TFA·H-(lfkvl)-NH2 [PPI-1321]
- Nucleation assay data 0.3 µM (Aβ1-40; [4]): <1
- Nucleation assay data 1 µM (Aβ1-40; [5]): <1
- Nucleation assay data 3 µM (Aβ1-40; [6]): <1

Substance: TFA·H-(lvffa)-dimethylamide [PPI-993]
- Nucleation assay Δlag 1.25 µM (Aβ1-40; [1]): 1
- Nucleation assay Δlag 5 µM (Aβ1-40; [2]): 1
- Nucleation assay Δlag […] (Aβ1-40; [3]): 1

Substance: TFA·H-(lf-[p-F]f-vl)-NH2 [PPI-1319]
- Nucleation assay data 0.3 µM (Aβ1-40; [4]): 1
- Nucleation assay data 1 µM (Aβ1-40; [5]): >5
- Nucleation assay data 3 µM (Aβ1-40; [6]): >5

Substance: TFA·H-(lf-[F5]f-vl)-NH2 [PPI-1320]
- Nucleation assay data 0.3 µM (Aβ1-40; [4]): 1
- Nucleation assay data 1 µM (Aβ1-40; [5]): 3
- Nucleation assay data 3 µM (Aβ1-40; [6]): >5

Substance: 2 TFA·H-lvf-NH-NH-fvl-H [PPI-1125]
- Nucleation assay data 0.3 µM (Aβ1-40; [7]): 2.0
- Nucleation assay data 1 µM (Aβ1-40; [8]): >2.5
- Nucleation assay data 3 µM (Aβ1-40; [9]): >2.5

Substance: TFA·N,N-diethyl-(affvl)-NH, [PPI-1006]
- Nucleation assay Δlag 1.25 µM (Aβ1-40; [1]): 1
- Nucleation assay Δlag 5 µM (Aβ1-40; [2]): 1
- Nucleation assay Δlag […] (Aβ1-40; [3]): 1

Substance: TFA·H-(lf-D-Cha-vl)-NH2 [PPI-1318]
- Nucleation assay data 0.3 µM (Aβ1-40; [4]): 1
- Nucleation assay data 1 µM (Aβ1-40; [5]): 2
- Nucleation assay data 3 µM (Aβ1-40; [6]): >5

Substance: TFA•N-methyl-(lvffl)-NH2 [PPI-1019]
- Nucleation assay data 0.3 µM (Aβ1-40; [7]): 2.0
- Nucleation assay data 1 µM (Aβ1-40; [8]): >2.5
- Nucleation assay data 3 µM (Aβ1-40; [9]): >2.5

Substance: TFA·N,N-dimethyl-(Gaffvl)-NH2 [PPI-803]
- Nucleation assay Δlag 1.25 µM (Aβ1-40; [1]): <1
- Nucleation assay Δlag 5 µM (Aβ1-40; [2]): <1
- Nucleation assay Δlag […] (Aβ1-40; [3]): <1

Substance: TFA·N-methyl-(Gaffvl)-NH2 [PPI-968]
- Nucleation assay Δlag 1.25 µM (Aβ1-40; [1]): 2
- Nucleation assay Δlag 5 µM (Aβ1-40; [2]): >5
- Nucleation assay Δlag […] (Aβ1-40; [3]): >5

Substance: TFA·N-isopropyl-(Gaffvl)-NH2 [PPI-970]
- Nucleation assay Δlag 1.25 µM (Aβ1-40; [1]): 1
- Nucleation assay Δlag 5 µM (Aβ1-40; [2]): >5
- Nucleation assay Δlag […] (Aβ1-40; [3]): >5

Substance: TFA·N,N-diethyl-(Gaffvl)-NH2 [PPI-1005]
- Nucleation assay Δlag 1.25 µM (Aβ1-40; [1]): 1
- Nucleation assay Δlag 5 µM (Aβ1-40; [2]): 3
- Nucleation assay Δlag […] (Aβ1-40; [3]): 3

Substance: TFA·H-(Glvffl)-NH2 [PPI-1013]
- Nucleation assay Δlag 1.25 µM (Aβ1-40; rows marked #: measured at 0.6 µM of compound): 2
- Nucleation assay Δlag […] (Aβ1-40; rows marked #: measured at 1.25 µM of compound): >3
- Nucleation assay Δlag 5 µM (Aβ1-40; rows marked #: measured at […] of compound): 2

Substance: TFA·N,N-dimethyl-(affvl)-NH2 [PPI-913]
- Nucleation assay Δlag 1.25 µM (Aβ1-40; [1]): 1
- Nucleation assay Δlag 5 µM (Aβ1-40; [2]): 1
- Nucleation assay Δlag […] (Aβ1-40; [3]): 1
